The target in the assay is T1, β-secretase(BACE) (Homo sapiens, UniProt P56817).
T1 construct: purchased Panvera
The assay is described as follows: BACE FS1% Inhibition Assay. Format: biochemical. The settings on record: FS1 substrate. A digest of the protocol:
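Human BACE (4 μg/mL working solution) preincubated 20 min at room temperature with compound, then FS1 substrate (300 μg/mL working solution) added and incubated 1 h at room temperature. Percent inhibition calculated at each compound concentration against blank and vehicle controls.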

Structures are written as SMILES. Where only a bound is given, the exact number is not on record here.

For orientation: inhibition means the percentage by which the read-out fell short of the control.

T1 sequence (P56817 46-501): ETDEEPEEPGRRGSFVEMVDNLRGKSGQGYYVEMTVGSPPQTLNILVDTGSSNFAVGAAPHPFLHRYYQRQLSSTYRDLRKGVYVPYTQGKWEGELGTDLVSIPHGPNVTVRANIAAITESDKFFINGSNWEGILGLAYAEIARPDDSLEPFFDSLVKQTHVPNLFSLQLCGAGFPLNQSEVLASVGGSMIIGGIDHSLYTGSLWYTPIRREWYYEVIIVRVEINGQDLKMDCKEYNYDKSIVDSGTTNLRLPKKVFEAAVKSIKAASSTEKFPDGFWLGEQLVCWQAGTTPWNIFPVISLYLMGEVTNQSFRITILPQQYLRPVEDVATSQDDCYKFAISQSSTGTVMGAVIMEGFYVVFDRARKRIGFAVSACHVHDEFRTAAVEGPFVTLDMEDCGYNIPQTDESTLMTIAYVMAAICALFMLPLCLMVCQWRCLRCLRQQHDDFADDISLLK

Consider `CCCC=Cc1ccc2c(c1)CN(CCNC(=O)C(C)(C)C)C(N)=N2` [Compound 574], for which the “% Inhibition (FS) 0.3 μM” value (0.3 μM test compound) was less than 30%. In addition, the “% Inhibition (FS) 1 μM” value (1 μM test compound) is less than 30%. The “% Inhibition (FS) 3 μM” value (3 μM test compound) is reported as less than 30%.

In the case of `NC1=Nc2ccc(-c3cncnc3)cc2CN1CCNC(=O)C1CCCCC1` [Compound 575], the “% Inhibition (FS) 0.3 μM” value (0.3 μM test compound) is on record as less than 30%. Besides, for the setting “1 μM test compound”, the “% Inhibition (FS) 1 μM” value was less than 30%. For the same compound, the “% Inhibition (FS) 3 μM” value (3 μM test compound) is listed as less than 30%.

As to `NC1=Nc2ccc(-c3ccncc3)cc2CN1CCNC(=O)C1CCCCC1` [Compound 576], for the setting “0.3 μM test compound”, the “% Inhibition (FS) 0.3 μM” value was less than 30%. For the same compound, the “% Inhibition (FS) 1 μM” value (1 μM test compound) is less than 30%. In addition, where the note is “3 μM test compound”, the “% Inhibition (FS) 3 μM” value is listed as less than 30%.

For `CCCC=Cc1ccc2c(c1)CN(CCNC(=O)C1CCCCC1)C(N)=N2` [Compound 577], the “% Inhibition (FS) 0.3 μM” value (0.3 μM test compound) is less than 30%. Besides, the “% Inhibition (FS) 1 μM” value (1 μM test compound) is on record as less than 30%. The “% Inhibition (FS) 3 μM” value (3 μM test compound) is given as less than 30%.

In the case of `CCCC=Cc1ccc2c(c1)CN(CCNC(=O)CC1CCCC1)C(N)=N2` [Compound 580], where the note is “0.3 μM test compound”, the “% Inhibition (FS) 0.3 μM” value is listed as less than 30%. Further, under “1 μM test compound”, the “% Inhibition (FS) 1 μM” value is on record as less than 30%. Besides, for the setting “3 μM test compound”, the “% Inhibition (FS) 3 μM” value is less than 30%.

Consider `CC(=O)c1cccc(-c2ccc3c(c2)CN(CCNC(=O)CC2CCCC2)C(N)=N3)c1` [Compound 582], for which the “% Inhibition (FS) 0.3 μM” value (0.3 μM test compound) is reported as less than 30%. Also, the “% Inhibition (FS) 1 μM” value (1 μM test compound) was less than 30%. Besides, for the setting “3 μM test compound”, the “% Inhibition (FS) 3 μM” value was less than 30%.

`NC1=Nc2ccc(-c3cccc(C(F)(F)F)c3)cc2CN1CCNC(=O)CC1CCCC1` [Compound 584]: the “% Inhibition (FS) 0.3 μM” value (0.3 μM test compound) is recorded as less than 30%. Further, the “% Inhibition (FS) 1 μM” value (1 μM test compound) was less than 30%. Also, the “% Inhibition (FS) 3 μM” value (3 μM test compound) is 56%.

Take `Cc1cc(C(=O)NCCN2Cc3cc(-c4ccccc4)ccc3N=C2N)c(C)o1` [Compound 586]: the “% Inhibition (FS) 0.3 μM” value (0.3 μM test compound) was less than 30%. The “% Inhibition (FS) 1 μM” value (1 μM test compound) is less than 30%. Also, the “% Inhibition (FS) 3 μM” value (3 μM test compound) is listed as 59%.

Take `CCCC=Cc1ccc2c(c1)CN(CCNC(=O)c1cc(C)oc1C)C(N)=N2` [Compound 587]: the “% Inhibition (FS) 0.3 μM” value (0.3 μM test compound) was less than 30%. Further, the “% Inhibition (FS) 1 μM” value (1 μM test compound) is given as less than 30%. The “% Inhibition (FS) 3 μM” value (3 μM test compound) is recorded as less than 30%.

`CC(=O)c1cccc(-c2ccc3c(c2)CN(CCNC(=O)c2cc(C)oc2C)C(N)=N3)c1` [Compound 588]: the “% Inhibition (FS) 0.3 μM” value (0.3 μM test compound) is less than 30%. Moreover, the “% Inhibition (FS) 1 μM” value (1 μM test compound) is less than 30%. Moreover, the “% Inhibition (FS) 3 μM” value (3 μM test compound) is reported as less than 30%.

On to `Cc1cc(C(=O)NCCN2Cc3cc(-c4cccc(CO)c4)ccc3N=C2N)c(C)o1` [Compound 589], for which the “% Inhibition (FS) 0.3 μM” value (0.3 μM test compound) is on record as less than 30%. Also, the “% Inhibition (FS) 1 μM” value (1 μM test compound) is reported as less than 30%. The “% Inhibition (FS) 3 μM” value (3 μM test compound) is less than 30%.

As for `Cc1cc(C(=O)NCCN2Cc3cc(-c4cccc(C(F)(F)F)c4)ccc3N=C2N)c(C)o1` [Compound 590], under “0.3 μM test compound”, the “% Inhibition (FS) 0.3 μM” value is less than 30%. Further, the “% Inhibition (FS) 1 μM” value (1 μM test compound) is given as less than 30%. Moreover, the “% Inhibition (FS) 3 μM” value (3 μM test compound) is given as less than 30%.

As for `CC(=O)Nc1ccc(C(=O)NCCN2Cc3cc(-c4ccccc4)ccc3N=C2N)cc1` [Compound 591], the “% Inhibition (FS) 0.3 μM” value (0.3 μM test compound) is recorded as less than 30%. The “% Inhibition (FS) 1 μM” value (1 μM test compound) is less than 30%. Further, the “% Inhibition (FS) 3 μM” value (3 μM test compound) is recorded as less than 30%.

On to `CCCC=Cc1ccc2c(c1)CN(CCNC(=O)c1ccc(NC(C)=O)cc1)C(N)=N2` [Compound 592], for which the “% Inhibition (FS) 0.3 μM” value (0.3 μM test compound) is given as less than 30%. Further, the “% Inhibition (FS) 1 μM” value (1 μM test compound) was less than 30%. Further, the “% Inhibition (FS) 3 μM” value (3 μM test compound) is listed as less than 30%.

As to `CC(=O)Nc1ccc(C(=O)NCCN2Cc3cc(-c4cccc(CO)c4)ccc3N=C2N)cc1` [Compound 593], under “0.3 μM test compound”, the “% Inhibition (FS) 0.3 μM” value is on record as less than 30%. For the same compound, for the setting “1 μM test compound”, the “% Inhibition (FS) 1 μM” value is less than 30%. Under “3 μM test compound”, the “% Inhibition (FS) 3 μM” value was less than 30%.

Consider `CC(=O)Nc1ccc(C(=O)NCCN2Cc3cc(-c4cccc(C(F)(F)F)c4)ccc3N=C2N)cc1` [Compound 594], for which the “% Inhibition (FS) 0.3 μM” value (0.3 μM test compound) was less than 30%. In addition, under “1 μM test compound”, the “% Inhibition (FS) 1 μM” value is less than 30%. Further, the “% Inhibition (FS) 3 μM” value (3 μM test compound) is less than 30%.

For `NC1=Nc2ccc(-c3ccccc3)cc2CN1CCNC(=O)Cc1ccccc1` [Compound 595], the “% Inhibition (FS) 0.3 μM” value (0.3 μM test compound) was found to be 32%. The “% Inhibition (FS) 1 μM” value (1 μM test compound) is recorded as 70%. For the setting “3 μM test compound”, the “% Inhibition (FS) 3 μM” value turned out to be 104%.

Regarding `CCCC=Cc1ccc2c(c1)CN(CCNC(=O)Cc1ccccc1)C(N)=N2` [Compound 596], the “% Inhibition (FS) 0.3 μM” value (0.3 μM test compound) was less than 30%. The “% Inhibition (FS) 1 μM” value (1 μM test compound) was less than 30%. Moreover, the “% Inhibition (FS) 3 μM” value (3 μM test compound) is less than 30%.

`CC(=O)c1cccc(-c2ccc3c(c2)CN(CCNC(=O)Cc2ccccc2)C(N)=N3)c1` [Compound 598]: where the note is “0.3 μM test compound”, the “% Inhibition (FS) 0.3 μM” value was less than 30%. For the setting “1 μM test compound”, the “% Inhibition (FS) 1 μM” value was less than 30%. Further, where the note is “3 μM test compound”, the “% Inhibition (FS) 3 μM” value is listed as 36%.

Take `NC1=Nc2ccc(-c3cccc(CO)c3)cc2CN1CCNC(=O)Cc1ccccc1` [Compound 599]: the “% Inhibition (FS) 0.3 μM” value (0.3 μM test compound) was less than 30%. Moreover, the “% Inhibition (FS) 1 μM” value (1 μM test compound) was less than 30%. For the setting “3 μM test compound”, the “% Inhibition (FS) 3 μM” value was 65%.

In the case of `NC1=Nc2ccc(-c3cccc(C(F)(F)F)c3)cc2CN1CCNC(=O)Cc1ccccc1` [Compound 600], the “% Inhibition (FS) 0.3 μM” value (0.3 μM test compound) is less than 30%. Also, the “% Inhibition (FS) 1 μM” value (1 μM test compound) is given as less than 30%. Also, for the setting “3 μM test compound”, the “% Inhibition (FS) 3 μM” value stood at 41%.

In the case of `CCCC(CNC(=O)C12CC3CC(CC(C3)C1)C2)N1Cc2cc(Oc3ccccc3)ccc2N=C1N` (stereo not drawn) [Compound 602], the “% Inhibition (FS) 0.3 μM” value (0.3 μM test compound, 0.3 µM) turned out to be 78%. The “% Inhibition (FS) 1 μM” value (1 μM test compound, 1 µM) worked out at 113%. The “% Inhibition (FS) 3 μM” value (3 μM test compound, 3 µM) was 121%.

For `CCC[C@H](CNC(=O)CCC(C)C)N1Cc2cc(Oc3ccccc3)ccc2N=C1N` [Compound 603], where the note is “0.3 μM test compound”, the “% Inhibition (FS) 0.3 μM” value is 101%. The “% Inhibition (FS) 1 μM” value (1 μM test compound) turned out to be 114%. For the setting “3 μM test compound”, the “% Inhibition (FS) 3 μM” value is reported as 122%.

With `NC1=Nc2ccc(Oc3ccccc3)cc2CN1C(Cc1ccccc1)c1ocnc1C(=O)NC1CCCCC1` (stereo not drawn) [Compound 606, 5-[1-(2-Amino-6-phenoxy-4H-quinazolin-3-yl)-2-phenyl-ethyl]-oxazole-4-carboxylic acid cyclohexylamide], the inhibition at 0.3 µM (0.3 μM test compound, read-out: % Inhibition (FS) 0.3 μM) was less than 30%. Further, for the setting “1 μM test compound, read-out: % Inhibition (FS) 1 μM”, the inhibition at 1 µM is less than 30%. Further, for the setting “3 μM test compound, read-out: % Inhibition (FS) 3 μM”, the inhibition at 3 µM came out at 56%.

Consider `COc1ccccc1-c1ccc2c(c1)CN(Cc1cccc(C(=O)N(C)C3CCCCC3)c1)C(NC(C)=O)=N2` [Compound 607], for which, where the note is “0.3 μM test compound”, the “% Inhibition (FS) 0.3 μM” value was 94%. Also, the “% Inhibition (FS) 1 μM” value (1 μM test compound) is listed as 116%. Moreover, the “% Inhibition (FS) 3 μM” value (3 μM test compound) is on record as 123%.

As to `NC1=Nc2ccc(Oc3ccccc3)cc2CN1C1CCCN(C(=O)C2CCCCC2)C1` (stereo not drawn) [Compound 611], the “% Inhibition (FS) 0.3 μM” value (0.3 μM test compound) is given as less than 30%. For the same compound, the “% Inhibition (FS) 1 μM” value (1 μM test compound) was 36%. Further, under “3 μM test compound”, the “% Inhibition (FS) 3 μM” value is recorded as less than 30%.

Turning to `CCCC(CCC)C(=O)N1CCCC(N2Cc3cc(Oc4ccccc4)ccc3N=C2N)C1` (stereo not drawn) [Compound 612], the “% Inhibition (FS) 0.3 μM” value (0.3 μM test compound) was less than 30%. Also, the “% Inhibition (FS) 1 μM” value (1 μM test compound) was determined as 34%. For the same compound, where the note is “3 μM test compound”, the “% Inhibition (FS) 3 μM” value is less than 30%.

Consider `CC(C)CCC(=O)N1CCCC(N2Cc3cc(Oc4ccccc4)ccc3N=C2N)C1` (stereo not drawn) [Compound 613], for which the “% Inhibition (FS) 0.3 μM” value (0.3 μM test compound) was determined as 36%. Where the note is “1 μM test compound”, the “% Inhibition (FS) 1 μM” value was 31%. The “% Inhibition (FS) 3 μM” value (3 μM test compound) is reported as less than 30%.

In the case of `NC1=Nc2ccc(Oc3ccccc3)cc2CN1C(CNC(=O)C1CCCCC1)Cc1ccc(O)cc1` (stereo not drawn) [Compound 614], the “% Inhibition (FS) 0.3 μM” value (0.3 μM test compound) is less than 30%. Besides, the “% Inhibition (FS) 1 μM” value (1 μM test compound) is less than 30%. Besides, the “% Inhibition (FS) 3 μM” value (3 μM test compound) was less than 30%.
